In one assay the target is HIV-1 protease (Human immunodeficiency virus type 1 group M subtype B, UniProt P04585). Kind of assay: HIV-1 protease enzyme inhibitory assay (protocol of Toth and Marshall). Particulars: for fold change in Ki compared to inhibitor 35a: loss of enzyme inhibitory potency vs 35a. In kind it is biochemical.
The test system of a further assay is HIV-1LAI. Kind of assay: Antiviral assay in MT-2 human T-lymphoid cells exposed to HIV-1LAI, MTT readout. It is filed as cell-based.
The subject of a further assay is HIV-1ERS104pre (X4). Kind of assay: Antiviral activity in PHA-PBMs, inhibition of p24 Gag protein production, wild-type clinical isolate. In kind it is cell-based. The text has this:
(§1) Inhibitor 35a was examined for its activity against a panel of multidrug-resistant HIV-1 variants and compared it with that of other clinically available PIs including 1a. […] This inhibitor outperformed the clinically available PIs with high antiviral activity and seems to compare well with 1a, which currently stands as the leading PI for the treatment of drug-resistant HIV infection.

A further assay has as its system HIV-1MDR/B (X4). Kind of assay: Antiviral activity in PHA-PBMs, p24 Gag, multidrug resistant clinical isolate. In kind it is cell-based. Conditions: for EC50: PHA-PBMs, p24 Gag.
Source text: as §1

Another assay concerns HIV-1MDR/G (X4). The assay is described as above. It is filed as cell-based.
Source text: as §1

A further assay concerns HIV-1MDR/JSL (R5). The assay is described as above. It is filed as cell-based. Conditions: for EC50: PHA-PBMs, p24 Gag.
Source text: as §1

In another assay the test system is HIV-1MDR/MM (R5). The description is as above. It is filed as cell-based.
Source text: as §1

In another assay the test system is HIV-1MDR/TM (X4). Described as above. It is filed as cell-based.
Source text: as §1

A further assay deals with HIV-1MRD/C (X4). The description is as above. It is filed as cell-based.
Source text: as §1

Setting [1] is: Human immunodeficiency virus 1, T-lymphoid, read-out: Antiviral IC50, (nM).
Where [2] appears, read: Human immunodeficiency virus 1, MT2.
Setting [3] is: Human immunodeficiency virus 1, MT2, MT-2 cells, 100 TCID50s of HIV-1LAI, MTT assay, read-out: IC50.
[4] abbreviates: Human immunodeficiency virus 1, T-lymphoid.

Read-outs that look alike come from different tables or passages of the source.

A word on the Ki: it is the dissociation constant of the complex between target and ligand, obtained from inhibition or displacement. A word on the EC50: it is the concentration needed to bring the measured effect to its halfway point. Read a low EC50 as greater potency.

Turning to `COc1ccc(S(=O)(=O)N(CC(C)C)C[C@@H](O)[C@H](Cc2ccccc2)NC(=O)O[C@H]2CCO[C@H]3OC[C@H](OC)[C@H]32)cc1`, the Ki on HIV-1 protease is less than 0.1 nM. The IC50 with HIV-1LAI (setting [1]) was less than 1 nM.
For `COc1ccc(S(=O)(=O)N(CC(C)C)C[C@@H](O)[C@H](Cc2ccccc2)NC(=O)O[C@H]2CCO[C@H]3OC[C@H](O)[C@H]32)cc1` the same measures were less than 0.1 nM and less than 10 nM.
On the same counts, the results for `COc1ccc(C[C@H](NC(=O)O[C@H]2CCO[C@H]3OC[C@H](O)[C@H]32)[C@H](O)CN(CC(C)C)S(=O)(=O)c2ccc(OC)cc2)cc1` are less than 0.1 nM and less than 10 nM.
For `COc1ccc(S(=O)(=O)N(CC(C)C)C[C@@H](O)[C@H](Cc2ccccc2)NC(=O)O[C@H]2CCO[C@H]3OC[C@H](OCc4ccccc4)[C@H]32)cc1` the same measures were less than 1 nM and less than 1 nM.
With `CC(C)CN(C[C@@H](O)[C@H](Cc1ccccc1)NC(=O)O[C@H]1CCO[C@H]2OCC[C@H]21)S(=O)(=O)c1ccc2nc(NC(C)C)sc2c1`, on HIV-1 protease, the Ki was less than 0.1 nM. Moreover, the IC50 in the assay with HIV-1LAI (setting [1]) is less than 1 nM.
For `CC(C)CN(C[C@@H](O)[C@H](Cc1ccccc1)NC(=O)O[C@H]1CCO[C@H]2OCC(O)C21)S(=O)(=O)c1ccc2nc(NC(C)C)sc2c1` (stereo partly drawn) the same measures were less than 0.1 nM and less than 10 nM.
For `CCNC1CO[C@@H]2OCC[C@H](OC(=O)N[C@@H](Cc3ccccc3)[C@H](O)CN(CC(C)C)S(=O)(=O)c3ccc4nc(NC(C)C)sc4c3)C12` (stereo partly drawn) the same measures were less than 0.1 nM and less than 10 nM.
For the compound `CC(C)CN(C[C@@H](O)[C@H](Cc1ccccc1)NC(=O)O[C@H]1CCO[C@H]2OCC[C@H]21)S(=O)(=O)c1ccc2nc(NC(C)C)oc2c1`, in the assay on HIV-1LAI (Human immunodeficiency virus 1, T-lymphoid, Examples Table 3, scored, read-out: Antiviral IC50), the IC50 was less than 10 nM.
On HIV-1 protease, `COc1ccc(C[C@H](NC(=O)O[C@H]2CCO[C@H]3OCC[C@H]32)[C@H](O)CN(CC(C)C)S(=O)(=O)c2ccc3nc(NC(C)C)oc3c2)cc1` showed a Ki of less than 0.1 nM. Besides, the IC50 in the assay on HIV-1LAI (setting [1]) is less than 10 nM.
For `COc1cccc(C[C@H](NC(=O)O[C@H]2CCO[C@H]3OCC[C@H]32)[C@H](O)CN(CC(C)C)S(=O)(=O)c2ccc3nc(NC(C)C)oc3c2)c1` the same measures were less than 0.1 nM and less than 10 nM.
On the same counts, the results for `COc1cccc(C[C@H](NC(=O)O[C@H]2CCO[C@H]3OCC[C@H]32)[C@H](O)CN(CC(C)C)S(=O)(=O)c2ccc3nc(NC(C)C)sc3c2)c1` are less than 0.1 nM and less than 1 nM.
Turning to `COc1ccc(S(=O)(=O)N(CC(C)C)C[C@@H](O)[C@H](Cc2ccccc2)NC(=O)O[C@@H]2CCO[C@@H]3OCC[C@@H]32)cc1` [35b, (3aR,4R,7aS)-Hexahydro-2H-furo[2,3-b]pyran-4-yl((2S,3R)-3-hydroxy-4-(N-isobutyl-4-methoxyphenylsulfonamido)-1-phenylbutan-2-yl)carbamate], at HIV-1 protease, the “fold change in Ki compared to inhibitor 35a” value is reported as more than 20 fold. For the same compound, the Ki on HIV-1 protease (read-out: Ki) came out at 0.068 nM. Further, the IC50 in the assay with HIV-1LAI (setting [2]) is 19 nM; in the assay with HIV-1LAI (Human immunodeficiency virus 1, MT2, read-out: antiviral activity ID50), 19 nM.
In the case of `COc1ccc(S(=O)(=O)N(CC(C)C)C[C@@H](O)[C@H](Cc2ccccc2)NC(=O)O[C@H]2CCC[C@H]3OCC[C@@H]23)cc1` [35c, (3aR,4S,7aR)-Octahydrobenzofuran-4-yl(2S,3R)-3-hydroxy-4-(N-isobutyl-4-methoxyphenylsulfonamido)-1-phenylbutan-2-yl carbamate], the “fold change in Ki compared to inhibitor 35a” value on HIV-1 protease is listed as 2 fold. Besides, the Ki on HIV-1 protease (read-out: Ki) stood at 0.005 nM. The IC50 in the assay with HIV-1LAI (setting [3]) was 8 nM. For the same compound, the “fold decrease in antiviral activity compared to inhibitor 35a” value in the assay with HIV-1LAI (MT-2 cells, HIV-1LAI) came out at 16 fold.
Regarding `COc1ccc(S(=O)(=O)N(CC(C)C)C[C@@H](O)[C@H](Cc2ccccc2)NC(=O)O[C@H]2CCO[C@H]3CCC[C@H]32)cc1` [35d, (4S,4aR,7aS)-Octahydrocyclopenta[b]pyran-4-yl((2S,3R)-3-hydroxy-4-(N-isobutyl-4-methoxyphenylsulfonamido)-1-phenylbutan-2-yl)carbamate], at HIV-1 protease (read-out: Ki), the Ki is 1.43 nM.
Consider `COc1ccc(S(=O)(=O)N(CC(C)C)C[C@@H](O)[C@H](Cc2ccccc2)NC(=O)O[C@H]2CCC[C@H]3CCC[C@H]32)cc1` [35e], for which the Ki on HIV-1 protease (read-out: Ki) was determined as 9 nM. The compound further registered an IC50 in the assay on HIV-1LAI (setting [2]) of more than 1000 nM. In the assay on HIV-1LAI (MT-2 cells, HIV-1LAI), the “antiviral activity” value is on record as “no appreciable antiviral activity”.
For `COc1ccc(S(=O)(=O)N(CC(C)C)C[C@@H](O)[C@H](Cc2ccccc2)NC(=O)O[C@H]2CCO[C@H]3COC[C@H]32)cc1` [35f, (4S,4aS,7aR)-Hexahydro-2H-furo[3,4-b]pyran-4-yl((2S,3R)-3-hydroxy-4-(N-isobutyl-4-methoxyphenylsulfonamido)-1-phenylbutan-2-yl)carbamate], on HIV-1 protease, the “protease inhibitory activity” value was “substantial loss of potency”. At HIV-1 protease (read-out: Ki), the Ki came out at 5.3 nM. Moreover, the IC50 in the assay with HIV-1LAI (setting [2]) is more than 1000 nM. The “antiviral activity” value in the assay on HIV-1LAI (MT-2 cells, HIV-1LAI) is recorded as “no antiviral activity”.
Take `COc1ccc(S(=O)(=O)N(CC(C)C)C[C@@H](O)[C@H](Cc2ccccc2)NC(=O)O[C@H]2CO[C@H]3OCC[C@H]3C2)cc1` [35g, (3aS,5R,7aR)-Hexahydro-2H-furo[2,3-b]pyran-5-yl((2S,3R)-3-hydroxy-4-(N-isobutyl-4-methoxyphenylsulfonamido)-1-phenylbutan-2-yl)carbamate]: the “protease inhibitory activity” value at HIV-1 protease is listed as “substantial loss of protease inhibitory activity”. The Ki on HIV-1 protease (read-out: Ki) was 0.11 nM.
Turning to `COC(=O)N[C@H](C(=O)N[C@@H](Cc1ccccc1)[C@@H](O)CN(Cc1ccc(-c2ccccn2)cc1)NC(=O)[C@@H](NC(=O)OC)C(C)(C)C)C(C)(C)C` [ATV], the EC50 was 2.7 ± 0.6 nM in the assay on HIV-1ERS104pre (X4); 470 ± 7 nM in the assay with HIV-1MDR/B (X4); 19 ± 8 nM with HIV-1MDR/G (X4) (PHA-PBMs, p24 Gag); 293 ± 99 nM in the assay with HIV-1MDR/JSL (R5); 205 ± 24 nM with HIV-1MDR/MM (R5) (PHA-PBMs, p24 Gag); 75 ± 3 nM in the assay with HIV-1MDR/TM (X4) (PHA-PBMs, p24 Gag). In the assay with HIV-1MRD/C (X4) (PHA-PBMs, p24 Gag), this compound yielded a concentration for a half-maximal effect (EC50) of 39 ± 3 nM. Besides, the “fold change of EC50 compared to wild-type HIV-1ERS104pre” value in the assay on HIV-1MDR/B (X4) (number in parentheses) is reported as 174 fold; with HIV-1MDR/G (X4) (number in parentheses), 7 fold; in the assay on HIV-1MDR/JSL (R5) (number in parentheses) it was 109 fold; in the assay on HIV-1MDR/MM (R5) (number in parentheses) it was 76 fold; in the assay with HIV-1MDR/TM (X4) (number in parentheses), 28 fold; in the assay on HIV-1MRD/C (X4) (number in parentheses), 14 fold.
In the case of `Cc1cccc(C)c1OCC(=O)N[C@@H](Cc1ccccc1)[C@@H](O)C[C@H](Cc1ccccc1)NC(=O)[C@H](C(C)C)N1CCCNC1=O` [LPV], the EC50 with HIV-1MDR/B (X4) and in the assay on HIV-1MDR/JSL (R5) was more than 1000 nM each time.
As to `CC(C)CN(C[C@@H](O)[C@H](Cc1ccccc1)NC(=O)O[C@H]1CCOC1)S(=O)(=O)c1ccc(N)cc1` [amprenavir, reference compound], the IC50 in the assay with HIV-1LAI (setting [3]) worked out at 30 nM.
In the case of `COc1ccc(C[C@H](NC(=O)O[C@H]2CCO[C@H]3OCC[C@H]32)[C@H](O)CN(CC(C)C)S(=O)(=O)c2ccc(N)cc2)cc1` [compound 1], at HIV-1 protease, the Ki was less than 1 nM. For the same compound, the IC50 with HIV-1LAI (setting [4]) lay in the range of 1 to 10 nM.
On the same counts, the results for `COc1ccc(C[C@H](NC(=O)O[C@H]2CCO[C@H]3OCC[C@H]32)[C@H](O)CN(CC(C)C)S(=O)(=O)c2ccc(OC)cc2)cc1` [compound 2] are less than 0.1 nM and less than 1 nM.
For `COc1ccc(C[C@H](NC(=O)O[C@H]2CCO[C@H]3OCC[C@H]32)[C@H](O)CN(C[C@H]2CCC(=O)N2)S(=O)(=O)c2ccc(OC)cc2)cc1` [compound 3] the same measures were less than 0.1 nM and 100 to 1000 nM.
For `COc1ccc(C[C@H](NC(=O)O[C@H]2CCO[C@H]3OCC[C@H]32)[C@H](O)CN(C[C@H]2CCC(=O)N2)S(=O)(=O)c2ccc(N)cc2)cc1` [compound 4] the same measures were less than 10 nM and more than 1000 nM.
Regarding `CC(C)CN(C[C@@H](O)[C@H](Cc1ccccc1)NC(=O)O[C@H]1CCO[C@H]2OCC[C@H]21)S(=O)(=O)c1ccc(N)cc1` [compound 36], the Ki on HIV-1 protease (read-out: Ki) turned out to be 0.01 nM. The same compound showed an IC50 in the assay with HIV-1LAI (setting [2]) of 6.5 nM.
On the same counts, the results for `CC(C)CN(C[C@@H](O)[C@H](Cc1ccccc1)NC(=O)O[C@H]1CCO[C@H]2OCC[C@H]21)S(=O)(=O)c1ccc(CO)cc1` [compound 37] are 0.085 nM and 4.5 nM.
As for `CC(C)CN(C[C@@H](O)[C@H](Cc1ccccc1)NC(=O)O[C@H]1CO[C@H]2OCC[C@H]21)S(=O)(=O)c1ccc(N)cc1` [drawing 189], the IC50 in the assay on HIV-1LAI (setting [1]) is less than 10 nM.
`CC(C)(C)NC(=O)[C@@H]1C[C@@H]2CCCC[C@@H]2CN1C[C@@H](O)[C@H](Cc1ccccc1)NC(=O)[C@H](CC(N)=O)NC(=O)c1ccc2ccccc2n1` [saquinavir, reference compound] registered an IC50 in the assay on HIV-1LAI (setting [2]) of 15 nM.

Source of the values: patent publication US9024038B2 (Purdue Research Foundation, priority 2010, dated 2015).
